We go through one compound from PMC4122355, “Inhibitor of the Tyrosine Phosphatase STEP Reverses Cognitive Deficits in a Mouse Model of Alzheimer's Disease” (PLoS Biology, 2014).

In one data set the target is T1, STEP (Mus musculus, UniProt P54830).
T1 sequence (P54830 1-541): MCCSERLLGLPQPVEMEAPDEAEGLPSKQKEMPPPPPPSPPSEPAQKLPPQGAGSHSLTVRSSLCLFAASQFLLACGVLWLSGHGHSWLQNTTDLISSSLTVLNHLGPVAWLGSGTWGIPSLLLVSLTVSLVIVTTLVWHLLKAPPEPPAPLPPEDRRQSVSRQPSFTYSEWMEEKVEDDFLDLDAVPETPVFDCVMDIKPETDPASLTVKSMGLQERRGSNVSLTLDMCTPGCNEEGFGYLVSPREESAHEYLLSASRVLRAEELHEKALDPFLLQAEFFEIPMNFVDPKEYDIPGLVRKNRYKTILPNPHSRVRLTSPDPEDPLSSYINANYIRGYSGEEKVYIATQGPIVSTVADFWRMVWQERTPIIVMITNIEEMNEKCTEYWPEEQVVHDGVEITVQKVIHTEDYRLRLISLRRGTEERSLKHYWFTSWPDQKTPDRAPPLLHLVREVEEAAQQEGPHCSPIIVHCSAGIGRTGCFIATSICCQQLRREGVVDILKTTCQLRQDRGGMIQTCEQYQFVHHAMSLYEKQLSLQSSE
Put plainly: Dialysis of TC-2153-inhibited STEP. Type of data set: biochemical. Conditions: after 24 h of dialysis. On the procedure: The samples were shaken at room temperature for 1 h to inhibit STEP. Each sample was then transferred to a separate Thermo Scientific Slide-A-Lyzer dialysis cassette with a 10,000 MW cutoff and 0.5–3.0 mL sample volume and was dialyzed into 1 L of 1× assay buffer over 24 h in a 4°C cold room. Aliquots of approximately 100 µL were removed from the dialysis cassette at 0, 4, and 24 h time points. Protein concentration was determined by reading absorbance at 280 nm compared to a standard curve for STEP. The samples were diluted to 100 nM in 100 µL of 1× assay buffer. […] The initial rate data collected were used to determine enzyme activity standardized to the DMSO control zero time point.

Another data set concerns 3xTg-AD and WT mice. Put plainly: Novel object recognition (NOR) task. It counts as in vivo, mouse. Conditions: 10 mg/kg i.p. On the procedure: Mice were first habituated to the task by allowing them to explore an empty white open field box (60 cm×60 cm) for 5 min. […] After the elapsed time, the mice completed the sample phase in which they were placed into the open field box with two identical objects located in the right and left corners. Mice were allowed to freely explore until they had accumulated a total of 30 s of object exploration (i.e., contact with the object with the nose and/or front paws), at which point the trial ended. The time spent with each object was recorded. Mice that were unable to complete the 30 s exploration within 20 min during the sample phase were excluded from the study (WT = 1 and AD = 3). Twenty-four hours later, mice completed the choice phase that was conducted in an identical manner to the sample phase except that one of the objects was substituted by a novel object and trial duration was set at 5 min. No drug treatments were given during the choice phase. Fifteen WT mice from the initial cohort were used to optimize the novel object conditions (to identify object pairings of inherent equal interest). Location of the novel object (left or right side) was counterbalanced to minimize possible bias. […] The DI was calculated for each subject by using the following formula: DI = (time spent exploring novel object – time spent exploring familiar object)/(total time spent exploring both objects). […]

Data set [1] deals with ERK1/2 (Y204/187) and Pyk2 (Y402). Description: Tyr phosphorylation of ERK1/2 and Pyk2 in different organs of WT and STEP KO mice. Type of data set: in vivo, mouse.
The next data set relates to cortical cultures. Description: LDH release toxicity assay in cortical cultures. Type of data set: cell-based. Conditions: up to 100 µM, up to 48 h, compared to positive controls. On the procedure: Bovine LDH was used as a LDH-positive control. The media was collected and analyzed for LDH. The assay quantitatively measures LDH, a stable cytosolic enzyme that is released upon cell lysis. Released LDH in culture supernatants is measured with a 30-min coupled enzymatic assay, which results in the conversion of a tetrazolium salt (INT) into a red formazan product. The amount of color formed is proportional to the number of lysed cells.
(In general: LDH in the medium is a marker of cell lysis.)

The conditions of data set [2]: cited from earlier work.
For data set [3], the system named is GluN2B (Y1472), Pyk2 (Y402), ERK1/2 (Y204/187) in cortex. Description: Tyr phosphorylation of STEP substrates in cortex of WT mice after i.p. injection. It counts as in vivo, mouse. Conditions: C57BL/6 mice, 10 mg/kg i.p., 3 h postinjection, relative to vehicle. On the procedure:
Wild-type, male C57BL/6 mice (3–6 mo) were used for all studies. […] Cortical tissues were dissected out 3 h postinjection and processed for subcellular fractionation. […] Homogenates were centrifuged at 800 × g to remove nuclei and large debris (P1). Synaptosomal fractions (P2) were prepared from S1 by centrifugation at 9,200 × g for 15 min. The P2 pellet was washed twice and was resuspended in TEVP buffer. […] Samples were prepared and resolved by SDS-PAGE, transferred to nitrocellulose membrane, and incubated with phospho-specific antibodies (anti-pY^204/187 ERK1/2, anti-pY^402 Pyk2, anti-pY^1472 GluN2B) or total protein antibodies (anti-ERK2, anti-Pyk2, and anti-NR2B) overnight at 4°C. Immunoreactivity was visualized using a Chemiluminescent substrate kit (Pierce Biotechnology, Rockford, IL) and detected using a G:BOX with the image program GeneSnap (Syngene, Cambridge, UK). All densitometric quantifications were performed using the Genetools program.

For the compound `Cl.Nc1cc(C(F)(F)F)cc2c1SSSSS2` [TC-2153, 8-(trifluoromethyl)-1,2,3,4,5-benzopentathiepin-6-amine hydrochloride], the “STEP activity after dialysis (reversibility)” value at STEP is reported as “STEP remained inhibited”. For the same compound, the “NOR memory in 12-mo-old AD mice” value in the data set with 3xTg-AD and WT mice (12-mo-old 3xTg-AD mice, familiar versus novel p<0.05) is “significant improvement of memory”. Besides, in the data set on 3xTg-AD and WT mice (WT mice, 12 mo cohort), the “NOR cognitive function in 12-mo-old WT mice” value was “did not affect cognitive function”. In addition, the “pERK1/2 and pPyk2 in hippocampus and frontal cortex of STEP KO mice” value in data set [1] (STEP KO mice) is “did not increase the Tyr phosphorylation of these substrates over baseline levels”. For the same compound, in data set [1] (WT mice, 10 mg/kg i.p., 3 h), the “pERK1/2 and pPyk2 in frontal cortex and hippocampus” value is “significant increase in pERK1/2 and pPyk2”. Moreover, the “pERK1/2 and pPyk2 in cerebellum, spleen, kidney, pancreas (tissues without STEP)” value in data set [1] (mice, 10 mg/kg i.p., 3 h) is “not in the cerebellum or in all tissues tested outside the brain”. In the data set on cortical cultures, the “LDH release (neuronal cell death)” value is recorded as “no significant effect on LDH release”. For the same compound, in data set [2], the “LD50 (acute toxicity)” value was > 1,000 mg/kg. Besides, in data set [3], the “pERK1/2 in cortex (P2 fraction)” value amounted to 2.52±0.16, the “pGluN2B in cortex (P2 fraction)” value stood at 1.66±0.28 and the “pPyk2 in cortex (P2 fraction)” value stood at 1.80±0.30.
